Test results: ChEMBL document CHEMBL3882386, “Novel methods for identifying improved, non-sedating alpha-2 agonists” (2005)
One block for each compound: values may come before it. Active and inactive are the calls of the source. No cut-off for these calls is given here.

Tests used:
Mus musculus [1] = experiment: Reduction in […]-induced tactile hypersensitivity in C57BL/6 mouse at 1 ug/kg, po relative to control; assay type: functional; parameters: scale not given: the % may be the effect or the level left
Mus musculus [2] = experiment: Induction of sedation in C57BL/6 mouse at 100 to 1000 ug/kg, po relative to control; assay type: organism-based; conditions: in vivo
Mus musculus [3] = experiment: Reduction in […]-induced tactile hypersensitivity in C57BL/6 mouse at 1 ug/kg, ip relative to control; assay type: functional; parameters: scale not given: the % may be the effect or the level left
Mus musculus [4] = experiment: Induction of sedation in C57BL/6 mouse at 100 to 1000 ug/kg, ip relative to control; assay type: organism-based; conditions: in vivo
Mus musculus [5] = experiment: Reduction in sulprostone-induced tactile hypersensitivity in C57BL/6 mouse at 0.1 to 1000 ug/kg, po; assay type: functional
Mus musculus [6] = experiment: Induction of sedation in C57BL/6 mouse at 0.1 to 1000 ug/kg, po; conditions: in vivo
[7] = molecular target: T1, Alpha-2C adrenergic receptor (Mus musculus, UniProt Q01337); experiment: Binding affinity to mouse alpha-2C receptor expressed in COS7 cells; assay type: cell-based, COS-7
T1 sequence (Q01337 whole entry): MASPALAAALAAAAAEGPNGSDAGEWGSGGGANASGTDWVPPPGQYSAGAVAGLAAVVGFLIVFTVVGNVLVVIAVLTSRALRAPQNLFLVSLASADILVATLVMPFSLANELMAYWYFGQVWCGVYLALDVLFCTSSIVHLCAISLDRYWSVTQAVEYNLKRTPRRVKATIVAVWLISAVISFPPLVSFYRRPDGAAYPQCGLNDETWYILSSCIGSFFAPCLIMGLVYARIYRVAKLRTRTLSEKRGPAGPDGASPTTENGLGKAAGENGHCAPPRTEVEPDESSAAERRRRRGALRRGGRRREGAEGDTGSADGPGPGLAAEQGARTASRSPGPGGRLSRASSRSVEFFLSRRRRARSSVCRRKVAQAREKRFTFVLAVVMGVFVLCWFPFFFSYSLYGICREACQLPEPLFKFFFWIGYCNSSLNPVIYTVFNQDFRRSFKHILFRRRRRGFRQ

[8] = molecular target: T2, Alpha-2A adrenergic receptor (Mus musculus, UniProt Q01338); experiment: Binding affinity to mouse alpha-2A receptor expressed in COS7 cells; assay type: cell-based, COS-7
T2 sequence (Q01338 whole entry): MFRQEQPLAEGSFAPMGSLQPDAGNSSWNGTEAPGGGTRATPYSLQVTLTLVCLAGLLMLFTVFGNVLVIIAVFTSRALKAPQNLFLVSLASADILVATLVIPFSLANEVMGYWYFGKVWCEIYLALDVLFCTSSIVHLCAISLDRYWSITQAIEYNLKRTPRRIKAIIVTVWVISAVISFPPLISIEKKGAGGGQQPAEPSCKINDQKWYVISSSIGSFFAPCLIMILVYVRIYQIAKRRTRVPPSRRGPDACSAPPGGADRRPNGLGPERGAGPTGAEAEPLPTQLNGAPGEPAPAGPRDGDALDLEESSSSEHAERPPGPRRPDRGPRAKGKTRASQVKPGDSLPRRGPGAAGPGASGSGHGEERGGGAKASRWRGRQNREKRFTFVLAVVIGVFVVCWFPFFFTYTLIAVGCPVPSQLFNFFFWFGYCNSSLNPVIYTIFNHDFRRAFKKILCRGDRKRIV

Mus musculus [9] = experiment: Reduction in […]-induced tactile hypersensitivity in C57BL/6 mouse at 10 ug/kg, ip relative to control; assay type: functional; parameters: scale not given: the % may be the effect or the level left
Mus musculus [10] = experiment: Induction of sedation in C57BL/6 mouse at 100 ug/kg, ip relative to control; assay type: organism-based; conditions: in vivo, 0.1 mg/kg

Compound: Cc1cccc([C@H](C)c2c[nH]c(=S)[nH]2)c1C [REZATOMIDINE]
- Activity (Mus musculus [1]): 50%
- Activity (Mus musculus [2]): < 30%
- Activity (Mus musculus [3]): 50%
- Activity (Mus musculus [4]): < 30%
- Activity (Mus musculus [5]): Active
- Activity (Mus musculus [6]): Non-Toxic

- Ki [7]: 0.65 µM
- Ki [8]: 5.8 µM
Compound: NC[C@H](O)c1ccc(O)c(O)c1 [NOREPINEPHRINE]

Compound: OCC1=CCCC(Cc2c[nH]cn2)C1 (stereo not given)
- Activity (Mus musculus [9]): >50%
- Activity (Mus musculus [10]): < 30%
